# Measurements as given in PMC6178282, “Comparative cell biological study of in vitro antitumor and antimetastatic activity on melanoma cells of GnRH-III-containing conjugates modified with short-chain fatty acids” (Beilstein Journal of Organic Chemistry, 2018).
# Read-outs that look alike come from different tables or passages of the source.
# Tested on: A2058 melanoma cells
# Experiment: xCELLigence impedance-based long-term antiproliferative/cytotoxic measurement
# Type: cell-based, human
# Settings: for IC50: Homo sapiens
# Excerpt: One of the major requirements for a drug-delivery conjugate is the ability to provide the antitumor activity of the attached drug inside the cells. The antiproliferative/cytotoxic effect of conjugates was investigated by an impedimetric technique, xCELLigence System (ACEA Biosciences, San Diego, CA, USA). The real-time measurement of the impedance change, which is in direct correlation with the number of adhered cells on an electrode surface, makes this impedimetric assay sensitive enough for cytotoxicity experiments. In the event of a cytotoxic compound, the cells detach from the electrode surface and a drop in the impedance – given as Cell index values – could be observed.
# IC50 values – a concentration that decreases the cell viability by 50% – were calculated from Cell index values obtained at 48 h and 72 h for each concentration and used for comparing the effects of conjugates. It is clearly seen that the presence of acylated Lys could increase almost 10-fold the antitumor activity (p < 0.001) of parent conjugate (GnRH-III(Dau=Aoa)). […]
# Cell proliferation and cytotoxicity measurement
# The antiproliferative/cytotoxic effect of conjugates compared with Dau was assessed using the xCELLigence SP System (ACEA Biosciences, San Diego, CA, USA). This system uses a so-called E-plate having gold microelectrodes covered the surface of each well and quantifies different cellular activities (e.g. cell proliferation, cell adhesion) by real-time measuring the impedance. The detected impedance change is in direct correlation with the cell number or the electrode surface covered by the attached cells. A relative and dimensionless parameter, Cell index (CI), was calculated from the detected impedance change by the following formula: […]
# where Zi is the impedance at a given time point, Z0 is the impedance at t = 0 h, and Fi is a constant depending on the frequency (F10kHz = 15). […]
# For the treatment of the cells, the conjugates and the free drug were applied in 10−12–10−4 M final concentrations and the cells were monitored for further 72 h. […]
# In order to evaluate whether the conjugates could elicit their antiproliferative/cytotoxic character in short-term, A2058 cells (10^4 cells/well) were seeded in 96-well plate 24 h before the treatment. […] After treating the cells with compounds in 10−6–10−5 M concentrations, where their most significant cytotoxic effect was detected in case of the long-term treatments, the cells were washed twice with serum-free medium and cultured for further 48 h in serum-containing medium. The viability of cells was determined by alamarBlue-assay (Thermo Fisher Scientific, Waltham, MA, USA) according to the manufacturer’s instruction. After 4 h incubation with the alamarBlue® reagent, the fluorescence intensity of the reaction product
# [1] = A2058 cells, Cell index time course, Figure S5
smiles,measurement,setting,value
COc1cccc2c1C(=O)c1c(O)c3c(c(O)c1C2=O)C[C@@](O)(C(C)=O)C[C@@H]3O[C@H]1C[C@H](N)[C@H](O)[C@H](C)O1 [daunorubicin],concentrations at which the tumor-growth inhibitory effect was elicited (time-course study),[1],10^–6 to 10^−4 M
same,time after treatment at which the effect on Cell index set in,[1],0 to 5 h
same,IC50,"A2058, 48 h, read-out: 48 h IC50",190 ± 17 nM
same,IC50,"A2058, 72 h, read-out: 72 h IC50",53 ± 9 nM
